Laboratory results as given in patent USRE35904E, “Method and probes for detecting nucleoside transporter and method for producing the probes” (Governors of the University of Alberta, priority 1995, dated 1998).

Key:
[1] = biological target: T1, es nucleoside transporter (Mus musculus, UniProt Q9JIM1); test: Flow cytometric staining of L1210/B23.1 cells (es nucleoside transporter-expressing) by SAENTA-fluorescein probe; type: cell-based
T1 construct: endogenous in cells; host or cells: L1210/B23.1 mouse leukemia cells
T1 sequence (Q9JIM1 1-460): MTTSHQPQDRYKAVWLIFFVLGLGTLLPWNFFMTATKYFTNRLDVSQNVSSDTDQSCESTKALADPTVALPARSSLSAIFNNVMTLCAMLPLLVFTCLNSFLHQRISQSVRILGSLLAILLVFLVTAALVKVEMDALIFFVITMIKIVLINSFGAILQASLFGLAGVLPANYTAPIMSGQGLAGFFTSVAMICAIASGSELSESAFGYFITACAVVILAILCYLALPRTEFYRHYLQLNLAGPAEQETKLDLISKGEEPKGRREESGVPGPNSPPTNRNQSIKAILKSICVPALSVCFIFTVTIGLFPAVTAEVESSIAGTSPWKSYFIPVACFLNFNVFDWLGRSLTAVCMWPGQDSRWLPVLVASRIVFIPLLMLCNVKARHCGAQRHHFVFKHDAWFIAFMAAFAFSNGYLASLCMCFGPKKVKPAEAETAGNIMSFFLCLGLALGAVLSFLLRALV
Experimental: (§1) Flow cytometric measurements of binding of .[.SAENTA-x2 -fluorescein.]. .Iadd.SAENTA-X2-fluorescein .Iaddend.prepared as in Example 3 was carried out as in Example 4 using two clonal lines of cultured mouse leukemia L 1210 cells, L 1210/B23.1 and L 1210/MA-27.1. L 1210/B23.1 expresses NBMPR binding sites and nuclesoside transporter activity whereas L 1210/MA-27.1 cells lack both of these features.
(§2) Staining conditions were chosen to minimise non-specific fluorescence signals from L 1210/MA-27.1 cells treated with the nucleoside.
(§3) Cells were exposed for 10 min at 4° C. to phosphate-buffered (pH 8.0) salts medium containing 40 nM .[.5(SAENTA-xx2)fluorescein.]. .Iadd.5-(SAENTA-X2)-fluorescein .Iaddend.prior to flow cytometric analysis in a BD FACSan instrument; 10^5 cells were analysed. Cells in replicate assay mixtures were also exposed for 5 min at 22° C. to medium containing 10 μM NBMPR and then for 10 min at 4° C. to medium containing both NBMPR and .[.5-SAENTA-x2)-fluorescein.]. .Iadd.5-(SAENTA-X2)-fluorescein.Iaddend..
(a) Clonal lines of mouse leukemia cells were exposed for 10 min at 4° C. to phosphate buffered (pH 8.0) saline containing […] .[.5-(SAENTA-x2)-fluorescein.]. .Iadd.5-(SAENTA-X2)-fluorescein .Iaddend.(prepared as in Example 3) prior to flow cytometric analysis in a BD FACScan instrument; 10^4 cells were analysed. Cells in replicate mixtures were also exposed for 5 min at 22° C. to medium containing 10 μM NBMPR and then for 10 min at 4° C. to medium containing both NBMPR and .[.5-(SAENTA-x2)-fluorescein.]. .Iadd.5-(SAENTA-X2)-fluorescein.Iaddend.. L 1210/B23.1 cells express the es nucleoside transport system whereas L 1210/MA-27.1 cells lack that activity.

L 1210/MA-27.1 cells = test: Flow cytometric staining of L1210/MA-27.1 cells (lacking es nucleoside transporter); type: cell-based, mouse; settings: with or without NBMPR pretreatment, FIG. 9
Experimental: as §1, §2, §3
(a) Clonal lines of mouse leukemia cells were exposed for 10 min at 4° C. to phosphate buffered (pH 8.0) saline containing […] .[.5-(SAENTA-x2)-fluorescein.]. .Iadd.5-(SAENTA-X2)-fluorescein .Iaddend.(prepared as in Example 3) prior to flow cytometric analysis in a BD FACScan instrument; 10^4 cells were analysed. […]

[2] = biological target: T1, es nucleoside transporter; test: Concentration-dependence of fluorescent staining of L1210/B23.1 cells by flow cytometry; type: cell-based; settings: 40 min, 4° C., pH 8.0, autofluorescence 298
Experimental: (b) Concentration-dependence of fluorescent staining of L 1210/23.1 cells by .[.5-(SAENTA-x2)-fluorescein.]. .Iadd.5-(SAENTA-X2)-fluorescein .Iaddend.was measured and the results are set out in Table 4.
Cells in PBS at pH 8.0 were incubated with the listed concentrations of the SAENTA-fluor probe at 4° C. for 40 min prior to flow cytometric analysis.

[3] = biological target: T1, es nucleoside transporter; test: [3H]NBMPR equilibrium binding to L1210/B23.1 cells and its inhibition by SAENTA-fluorescein probes; settings: 22°, replots of Kd(app)/Bmax versus [probe], read-out: Ki (mean ± S.D.)
[4] = tested on: es nucleoside transporter; settings: Gati et al. 1987; cited from earlier work

Row | staining of L1210/B23.1 cells ([1]; 40 mM (so in the source), 10 min, 4° C., pH 8.0, FIG. 9) | Fluorescence intensity ([2]; 5 nM) [mean channel no.] | Fluorescence intensity ([2]; 10 nM) [mean channel no.] | Fluorescence intensity ([2]; 20 nM) [mean channel no.] | Fluorescence intensity ([2]; 40 nM) [mean channel no.] | Fluorescence intensity ([2]; 60 nM) [mean channel no.] | Fluorescence intensity ([2]; 80 nM) [mean channel no.] | Fluorescence intensity ([2]; 160 nM) [mean channel no.] | Fluorescence intensity ([2]; 320 nM) [mean channel no.] | Fluorescence intensity ([2]; 640 nM) [mean channel no.] | Fluorescence intensity ([2]; 1280 nM) [mean channel no.] | Ki [3] [nM] | Compound | specificity of staining of the cell lines ([1]; L1210/B23.1 versus L1210/MA27.1, FIG. 9) | fluorescence of L1210/MA27.1 cells after staining compared with autofluorescence (L 1210/MA-27.1 cells) | non-specific adsorption [4]
1 | stained 1210/B23.1 cells | 301 | 344 | 372 | 407 | 427 | 429 | 497 | 601 | 691 | 761 | 17 ± 8 | O=C1OC2(c3ccc(O)cc3Oc3cc(O)ccc32)c2ccc(NC(=S)NCCSC[C@H]3O[C@@H](n4cnc5c(NCc6ccc([N+](=O)[O-])cc6)ncnc54)[C@H](O)[C@@H]3O)cc21 [5-(SAENTA-X2)-fluorescein, 5'-S-[2-(Fluorescein-5-thioureidyl)ethyl]-N^6-(4-nitrobenzyl)-5'-thioadenosine] | specific for the es nucleoside transporter system | very similar | –
2 | – | – | – | – | – | – | – | – | – | – | – | – | [^125 I]Iodohydroxynitrobenzylthioinosine [[125I]Iodohydroxynitrobenzylthioinosine] | – | – | high non-specific adsorption
